Where two headings read alike, the source gives them in different places.
Biological target: Der p 1 (Dermatophagoides pteronyssinus (European house dust mite), UniProt P08176)
Assay: Der p 1 enzyme activity assay (FRET fluorogenic substrate)
Format: biochemical
Procedure: The fluorogenic substrate used for measuring Der p 1 proteolytic activity was 2-aminobenzoylvalylalanylnorleucylseryl-(3-nitro)tyrosinyl aspartamide.
Test compounds were dissolved in dry DMSO and maintained at 4° C. as stock solutions until being diluted for use in screening assays. Final concentration of DMSO in all enzymatic assays was 0.5% v/v.
Reaction mixtures were assembled in a 96-well plate format (Perkin Elmer Optiplate 96F, Perkin Elmer LAS, Seer Green, Buckinghamshire, UK) using a Perkin Elmer MultiPROBE II Plus HTS EX robot with Gripper attachment. […] Dithiothreitol (DTT, 10 μL/well, 1 mM final concentration) was then added together with 10 μL of Der p 1 dissolved at 2.5 μg/mL in reaction buffer supplemented with 1 mM DTT. […] The plate was immediately transferred to a fluorescence plate reader (Perkin Elmer Fusion Alpha-FP or Perkin Elmer Envision) equipped with a temperature-controlled carrier set at 30° C. and the reaction followed by excitation/emission at 330/420 nm.
Inhibitory activity was analysed from progress curves of reactions in the presence of a range of inhibitor concentrations.
Initial velocity in each well was converted to fractional activity by Equation 1: Fractional activity=(Initial rate at inhibitor concentration[X]/Initial rate at inhibitor concentration zero)*100 Equation 1:
Then, IC50 was determined by fitting the data of fractional activity and inhibitor concentration to a 4-parameter logistic curve, using Equation 2: V=Vmin+[Vmax−Vmin]/[1+(X/IC50)Hillslope] […] Biological Data—Der p 1 Enzyme Assay

[1] = threshold stated in text, read-out: Der p 1 IC50

Sequence of Der p 1 (P08176 99-320): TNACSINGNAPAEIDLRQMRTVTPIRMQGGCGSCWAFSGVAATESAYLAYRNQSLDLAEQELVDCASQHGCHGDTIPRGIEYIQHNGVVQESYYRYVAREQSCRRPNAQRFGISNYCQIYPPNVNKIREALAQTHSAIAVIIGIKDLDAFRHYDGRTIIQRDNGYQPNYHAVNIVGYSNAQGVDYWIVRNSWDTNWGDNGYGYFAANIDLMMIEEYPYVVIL

| Structure (SMILES) | IC50 [1] [nM] | IC50 (Der p 1 IC50) [nM] |
| --- | --- | --- |
| CC(C)[C@H](NC(=O)[C@H](C)NC(=O)[C@H](Cc1ccccc1)NC(=O)c1ccc(N2CCOCC2)nc1)C(=O)C(=O)NCc1ccccc1 [PVA-070] | < 2000 |  |
| CC(C)[C@H](NC(=O)[C@H](C)NC(=O)[C@H](Cc1ccccc1)NC(=O)c1ccc2ncsc2c1)C(=O)C(=O)NCc1ccccc1 [PVA-051] | < 200 |  |
| CC(C)[C@H](NC(=O)[C@H](C)NC(=O)[C@H](Cc1cccc2ccccc12)NC(=O)c1cccc2ccccc12)C(=O)C(=O)NCC(=O)N1CCN(C)CC1 [PVA-138] | < 200 |  |
| CC(C)[C@H](NC(=O)[C@H](C)NC(=O)[C@@H](NC(=O)c1ccccc1)C(C)(C)C)C(=O)C(=O)NCc1ccc(S(N)(=O)=O)cc1 [PVA-135] | < 20 |  |
| CC(C)[C@H](NC(=O)[C@H](C)NC(=O)[C@@H](Cc1cccc2ccccc12)NC(=O)c1ccccc1)C(=O)C(=O)NCc1ccccc1 [PVA-034] | < 2000 |  |
| CC(C)[C@H](NC(=O)[C@H](C)NC(=O)[C@@H](NC(=O)c1ccccc1N1CCN(C)CC1)C(C)(C)C)C(=O)C(=O)NCc1ccccc1 [PVA-201] | < 200 |  |
| COC(=O)c1cccc(CNC(=O)C(=O)[C@@H](NC(=O)[C@H](C)NC(=O)[C@H](Cc2ccccc2)NC(=O)c2ccccc2)C(C)C)c1 [PVA-080] | < 20 |  |
| CC(C)[C@H](NC(=O)[C@H](C)NC(=O)[C@@H](NC(=O)c1ccccc1)C(C)(C)C)C(=O)C(=O)NCC(=O)N1CCc2ccccc21 [PVA-112] | < 20 |  |
| CC(C)[C@H](NC(=O)[C@H](C)NC(=O)[C@@H](NC(=O)c1cncc2ccccc12)C(C)(C)C)C(=O)C(=O)NCc1ccccc1 [PVA-074] | < 20 |  |
| CC(C)[C@H](NC(=O)[C@H](C)NC(=O)[C@@H](NC(=O)c1ccccc1)C(C)(C)C)C(=O)C(=O)NCc1ccc(C(N)=O)cc1 [PVA-202] | < 20 |  |
| CC(C)[C@H](NC(=O)[C@H](C)NC(=O)[C@@H](NC(=O)c1ccccc1)C(C)(C)C)C(=O)C(=O)N[C@@H](C)c1ccccc1 [PVA-133] | < 200 |  |
| CC(C)[C@H](NC(=O)[C@H](C)NC(=O)[C@@H](Cc1ccccc1)NC(=O)c1cccc(Oc2ccccc2)c1)C(=O)C(=O)NC1CCCCC1 [PVA-021] | < 2000 |  |
| CC(C)[C@H](NC(=O)[C@H](C)NC(=O)[C@@H](N1Cc2ccccc2C1=O)C(C)(C)C)C(=O)C(=O)NCc1ccc(C(N)=O)cc1 [PVA-207] | < 20 |  |
| CC(C)[C@H](NC(=O)[C@H](C)NC(=O)[C@@H](NC(=O)c1cccc(Cl)c1)C(C)(C)C)C(=O)C(=O)NCc1ccccc1 [PVA-183] | < 20 |  |
| CC(C)[C@H](NC(=O)[C@H](C)NC(=O)[C@@H](NC(=O)c1ccc2ncsc2c1)C(C)(C)C)C(=O)C(=O)NC1CCCCC1 [PVA-053] | < 200 |  |
| CC(C)[C@H](NC(=O)[C@H](C)NC(=O)[C@@H](NC(=O)c1ccccc1)C(C)(C)C)C(=O)C(=O)NCC(=O)N1CCCCC1 [PVA-078] | < 20 |  |
| COc1ccc(NC(=O)C(=O)[C@@H](NC(=O)[C@H](C)NC(=O)[C@H](Cc2ccccc2)NC(=O)c2ccccc2)C(C)C)cc1 [PVA-012] | < 2000 |  |
| CNS(=O)(=O)c1ccc(CNC(=O)C(=O)[C@@H](NC(=O)[C@H](C)NC(=O)[C@@H](NC(=O)c2ccccc2)C(C)(C)C)C(C)C)cc1 [PVA-197] | < 20 |  |
| CC(C)[C@H](NC(=O)[C@H](C)NC(=O)[C@@H](NC(=O)c1ccccc1)C(C)(C)C)C(=O)C(=O)N[C@@H]1CN2CCC1CC2 [PVA-120] |  | < 200 |
| CC(C)[C@H](NC(=O)[C@H](C)NC(=O)[C@H](Cc1cccc2ccccc12)NC(=O)c1ccccc1)C(=O)C(=O)NCC(=O)N1CCN(C)CC1 [PVA-137] | < 20 |  |
| CC(C)[C@H](NC(=O)[C@H](C)NC(=O)[C@@H](NC(=O)c1cccc2ccccc12)C(C)(C)C)C(=O)C(=O)NC1CCCCC1 [PVA-052] | < 200 |  |
| CNC(=O)c1ccc(CNC(=O)C(=O)[C@@H](NC(=O)[C@H](C)NC(=O)[C@@H](N2Cc3ccccc3C2=O)C(C)(C)C)C(C)C)cc1 [PVA-209] | < 20 |  |
| CC(C)[C@H](NC(=O)[C@H](C)NC(=O)[C@@H](Cc1ccccc1F)NC(=O)c1ccccc1)C(=O)C(=O)NC1CCCCC1 [PVA-030] | < 200 |  |
| CC(C)[C@H](NC(=O)[C@H](C)NC(=O)C1CCCN1C(=O)c1ccccc1)C(=O)C(=O)NC1CCCCC1 (stereo partly shown) [PVA-101] | < 200 |  |
| Cc1ccc(CNC(=O)C(=O)[C@@H](NC(=O)[C@H](C)NC(=O)[C@@H](NC(=O)c2ccccc2)C(C)(C)C)C(C)C)cc1 [PVA-205] | < 20 |  |

Second part, led by results:

| IC50 [1] [nM] | Structure (SMILES) | IC50 (Der p 1 IC50) [nM] |
| --- | --- | --- |
| < 200 | CC(C)[C@H](NC(=O)[C@H](C)NC(=O)[C@@H](NC(=O)c1ccccc1)C(C)(C)C)C(=O)C(=O)NCc1cncn1C [PVA-124] |  |
| < 200 | CC(C)[C@H](NC(=O)[C@H](C)NC(=O)[C@@H](Cc1ccc(F)c(F)c1)NC(=O)c1ccccc1)C(=O)C(=O)NC1CCCCC1 [PVA-028] |  |
| < 200 | CCC[C@H](NC(=O)[C@H](Cc1ccccc1)NC(=O)c1ccccc1)C(=O)N[C@H](C(=O)C(=O)NC1CCCCC1)C(C)C [PVA-088] |  |
| < 200 | CC(C)C(NC(=O)[C@H](C)NC(=O)[C@H](Cc1ccccc1)NC(=O)c1ccccc1)C(=O)C(=O)NCc1ccccn1 (stereo partly shown) [PVA-023] |  |
| < 20 | CC(C)[C@H](NC(=O)[C@H](C)NC(=O)[C@@H](NC(=O)c1ccccc1C(F)(F)F)C(C)(C)C)C(=O)C(=O)NCc1ccccc1 [PVA-182] |  |
| < 200 | CC(C)[C@H](NC(=O)[C@H](C)NC(=O)[C@H](Cc1ccccc1)NC(=O)c1ccccc1)C(=O)C(=O)Nc1ccc(F)cc1 [PVA-011] |  |
| < 200 | Cc1cc(C(=O)N[C@H](C(=O)N[C@@H](C)C(=O)N[C@H](C(=O)C(N)=O)C(C)C)C(C)(C)C)[nH]n1 [PVA-148] |  |
| < 20 | CC(C)[C@H](NC(=O)[C@H](C)NC(=O)[C@@H](NC(=O)c1ccccc1)C(C)(C)C)C(=O)C(=O)NC1CC1 [PVA-116] |  |
| < 2000 | C[C@H](NC(=O)[C@H](Cc1ccccc1)NC(=O)c1ccccc1)C(=O)NCC(=O)C(=O)N1CCC(N(C)C)CC1 [PVA-018] |  |
| < 200 | CC(C)[C@H](NC(=O)[C@H](C)NC(=O)[C@@H](NC(=O)c1ccc(=O)[nH]c1)C(C)(C)C)C(=O)C(=O)NC1CCCCC1 [PVA-084] |  |
| < 20 | CC(C)[C@H](NC(=O)[C@H](C)NC(=O)[C@@H](NC(=O)c1ccccc1)C(C)(C)C)C(=O)C(=O)NCc1cccc(C(N)=O)c1 [PVA-155] |  |
| < 200 | CC(=O)Nc1ccc(C(=O)N[C@@H](Cc2ccccc2)C(=O)N[C@@H](C)C(=O)N[C@H](C(=O)C(=O)NCc2ccccc2)C(C)C)cn1 [PVA-059] |  |
| < 2000 | CC(C)[C@H](NC(=O)[C@H](C)NC(=O)[C@H](Cc1ccccc1)NC(=O)c1ccccc1)C(=O)C(=O)N[C@@H](C)c1ccccc1 [PVA-016] |  |
| < 200 | CC(C)[C@H](NC(=O)[C@H](C)NC(=O)[C@@H](NC(=O)c1ccnc(N2CCOCC2)c1)C(C)(C)C)C(=O)C(=O)NCc1ccccc1 [PVA-048] |  |
| < 200 | CC(C)[C@H](NC(=O)[C@H](C)NC(=O)[C@@H](NC(=O)c1ccccc1)C(C)(C)C)C(=O)C(=O)NCc1ccc(OC(F)(F)F)cc1 [PVA-189] |  |
| < 200 | CC(C)[C@H](NC(=O)[C@H](C)NC(=O)[C@@H](NC(=O)c1ccccc1)C(C)(C)C)C(=O)C(=O)NCc1cccc(C(=O)OC(C)(C)C)c1 [PVA-200] |  |
| < 20 | CC(C)[C@H](NC(=O)[C@H](C)NC(=O)[C@@H](NC(=O)c1ccnc2ccccc12)C(C)(C)C)C(=O)C(=O)NCc1ccccc1 [PVA-072] |  |
| < 200 | CC(C)C[C@H](NC(=O)[C@H](C)NC(=O)[C@H](Cc1ccccc1)NC(=O)c1ccccc1)C(=O)C(=O)N[C@@H](C)c1ccccc1 [PVA-002] |  |

From US8541363B2, “Pyruvamide compounds as inhibitors of dust mite group 1 peptidase allergen and their use” (St George's Hosptial Medical School, priority 2010, dated 2013)
